Reference: ChEMBL document CHEMBL3507680, “University of Dundee, Gates Library screen for HepG2 cell viability”

Test: Human HepG2 cell viability assay in 384 well format
Format: toxicity, cell-based
Design: dose 125 nL, time 70.5 hour; concentration not given beside the values
Settings: HepG2 cells, read-out: Inhibition

Structure (SMILES) | cytotoxicity at 70.5 h [%]
CN(C)S(=O)(=O)N1C[C@@H]2CC[C@H](C1)N(C/C=C/c1ccc(F)cc1)C2 | 0.852
Cc1nc(CN2CCO[C@H]3[C@@H](OCc4cccnc4)CC[C@@H]32)cs1 | 4.04
Cc1nc(N)sc1C(=O)N1Cc2ccccc2OC2(CCOCC2)C1 | 31.2
Cc1nnc2n1CCN(CCS(=O)(=O)c1ccccc1)C2 | -9.06
Cc1nc(C2CCCN2C(=O)CCCOc2cccc(F)c2)no1 (configuration not stated) | -4.99
CC1=N[C@@]2(CC[C@@H]3CN(Cc4ccccc4F)C[C@@H]32)C(=O)N1CC1CC1 | -0.339
CS(=O)(=O)Cc1cc(F)ccc1NCc1nnsc1Cl | 12.3
CC(NC(=O)NCc1cscn1)c1ccc(N2CCOCC2)cc1 (configuration not stated) | -0.548
COc1ccccc1CNCc1nn(-c2ccccc2)c2c1CCC2 | 0.28
CN(Cc1ccncc1)c1cncc(Br)c1 | -14.6
Cn1c(SCC(N)=O)nnc1-c1csc2c1CCCC2 | -9.11
Cc1ccc(C2(CN3CCN(Cc4cn(C)nc4C)CC3)CC2)cc1 | -11.3
CC(C)c1ccc(CC2(C)Cc3cc(CC(=O)O)ccc3O2)cc1 (configuration not stated) | 17.5
COCCN1C(=O)CC(c2cccnc2)C12CCN(C(=O)C1CC1)CC2 (configuration not stated) | -0.348
COc1cc(C(=O)NC2COc3ccccc3C2)ccc1OCC(N)=O (configuration not stated) | -9.85
COC(=O)CC(c1ccc(OC)c(OC)c1)c1oc(C)cc(=O)c1O (configuration not stated) | 5.4
COc1ccccc1CN(Cc1nc(CC(C)C)no1)C1CC1 | -14.2
CN(C)Cc1cnc2n1CCN(C(=O)Cc1ccc(F)cc1)CC2 | -1.54
CCCn1nc(C(=O)NC2(c3ccc(Cl)cc3)CCCC2)ccc1=O | -7.76
CN(C)c1ccc(C(=O)Nc2ccn(CCc3ccncc3)n2)cc1 | 15
CCN1C(=O)CC[C@@H]2N(C(=O)CCn3nccc3C)CCCC[C@@]21C | -6.96
COC(C(=O)N1CCN(Cc2noc(C)n2)CC1)c1ccccc1 (configuration not stated) | -3.29
Cc1cc2ccccc2n1CCC(=O)N1CCCC2(CC1)CNC(=O)O2 (configuration not stated) | -7.42

Structure (SMILES) | cytotoxicity at 70.5 h [%]
O=C(O)[C@@H]1OCC(=O)N(Cc2cccc(Cl)c2)[C@@H]1c1ccccc1 | 5.58
Cc1ncccc1C(=O)NC1CC(=O)N(CC(F)(F)F)C1 (configuration not stated) | -0.154
COCCCOc1ccc(C(=O)N(Cc2cnn(C)c2)C(C)C)cn1 | -7.46
Nc1nccc(C2CN(Cc3ccc(-c4ccccc4C(=O)O)o3)C2)n1 | 2.9
O=C1NCCN(Cc2ccccc2)C1CC(=O)N1CCc2n[nH]cc2C1 (configuration not stated) | 19.3
Cc1[nH]c(=O)[nH]c(=O)c1CN1CCCC(CCc2ccc(F)c(F)c2)C1 (configuration not stated) | -10.6
Cn1cncc1-c1nnc([C@H]2CCN(Cc3ccc(F)c(F)c3)C2)o1 | -0.644
c1cnn(CCNCc2nnc(C3CC3)o2)c1 | 48.9
CCc1ccc(CN2C[C@@H]3OCCN(c4ccnc(N(C)C)n4)[C@@H]3C2)o1 | 5.59
Cc1cnc(CN(C)C2CCN(Cc3cnc(C)s3)C2)o1 (configuration not stated) | -8.23
Cn1ccc(C(=O)N2CCCCC23CC(=O)N(Cc2ccccc2)C3)n1 (configuration not stated) | 1.38
Cc1noc(C)c1CN1CCN(CC2CC2)c2ncccc2C1 | -5.96
O=C1CCC2(CCN(Cc3nccs3)CC2)N1Cc1ccccc1 | -7.75
CC(Cn1cccn1)NC(=O)NCCc1cnn(C)c1 (configuration not stated) | -16.3
CCCc1n[nH]c(C2CN(C(=O)c3cccnc3N(C)C)CCO2)n1 (configuration not stated) | -0.878
Cc1nc2cc(C3CCCCN3C(=O)C3CC3)nn2c(O)c1C (configuration not stated) | -2.34
COC(=O)c1cc2c(=O)n(C3CC3)ccc2nc1C | 2.32
CNC(=O)Nc1cnc2cc(Cl)ccc2c1O | 10
CCN(CC)[C@H]1C[C@@H](Cc2cc(CO)on2)C1(C)C | -7.1
CCN(Cc1ccc2c(c1)OCCO2)C(=O)Cn1cccnc1=O | -5.36
CC(C)N(C)Cc1cn2c(n1)CN(Cc1ccsc1)CC2 | 10.4
CCN1CCN(c2ccc(CNC(=O)c3cc(C)on3)cn2)CC1 | -4.09
COCCn1cc(C(=O)N2CCCC2c2ccncc2)c2ccccc21 (configuration not stated) | -4.2

Structure (SMILES) | cytotoxicity at 70.5 h [%]
CC1c2ncc(COCC3CCOCC3)n2CCN1C(=O)c1ccoc1 (configuration not stated) | -2.87
CC(CNC(=O)NCc1ccco1)N1CCc2sccc2C1 (configuration not stated) | 36.1
Cc1cc(C2CCCCCN2Cc2cn(C)nc2C)no1 (configuration not stated) | -6.86
COCCCN1CC2(CCN(C(=O)Cc3csc(C)n3)CC2)CC1=O | -7.77
CCc1noc(C(C)N2CCN(c3ccc(C#N)cc3F)CC2)n1 (configuration not stated) | -24.4
CN1CCc2[nH]nc(C(=O)N3CCC4(CCCO4)CC3)c2C1 | -0.824
Cc1nn(CCN2CCSCC2)cc1CNCc1ccccn1 | -5.69
CO[C@H]1CN(Cc2cc(Cn3cncn3)c(C)cc2C)CC[C@H]1N | 6.57
O=C(Cc1cccs1)N1CC(c2nc(-c3cnccn3)no2)C1 | -6.93
CCc1ccc(C(=O)NC[C@H]2CCCN2C(=O)c2ccc(CC)o2)o1 | 2.7
CSCC(C)(O)CNC(=O)c1cc(F)ccc1Br (configuration not stated) | 1.71
CCS(=O)(=O)N1Cc2nccn2CC(Cn2cccn2)C1 (configuration not stated) | 1.18
N#Cc1ccc(NCc2cccc(COC3CCOCC3)c2)nc1 | -2.1
CO[C@H]1CN(C(=O)c2cccnc2)[C@@H]2CCCO[C@H]12 | -11.9
Cc1nc(CO[C@@H]2CN(Cc3ccco3)[C@@H]3COC[C@@H]32)cs1 | -14.3
O=C(NC1CCC1)c1c2c(N3CCCC3)ncnc2n2ccccc12 | -2.42
Cc1cccc2nc(CN3CCC(Cn4ccnn4)CC3)cc(=O)n12 | -3.54
Cc1nc(N2CCCCC2)ncc1C(=O)N1CC(C)(C)[C@@](C)(O)C1 | -6.11
CC(C)NC(=O)C1(Cc2ccccc2-c2cncnc2)CCCNC1 (configuration not stated) | -4.61
Fc1cc(Cl)cnc1N1CCCC(c2nccn2CC2CC2)C1 (configuration not stated) | 22.7
Cc1cc(CN2CCC(C3CCN(Cc4cccnc4)CC3)C2)[nH]n1 (configuration not stated) | -6.23
Cc1nc(C(C)C)sc1C(=O)N(C)Cc1cnn(C)c1 | 14.2
Cc1cccc(C2CCN(S(=O)(=O)c3cn(C)cn3)CC2)n1 | -8.21

Structure (SMILES) | cytotoxicity at 70.5 h [%]
COc1ccc(OCc2cc(C(=O)N3CCSCC3)n[nH]2)c(Cl)c1 | -5.04
COc1ccc(CCN(C)C2CCCN(Cc3noc(C)n3)C2)cc1 (configuration not stated) | 25
CCS(=O)(=O)N1Cc2c(Cn3ccnc3)nn(C)c2C1 | -2.09
CCc1ccc(CN(C)C(=O)C(c2ccccc2F)N(C)C)nc1 (configuration not stated) | -7.7
CN1C[C@@H]2CN(Cc3ccsc3)CCC[C@]2(C(=O)O)C1 | -2.55
NC(=O)c1ccc(N2CCCCC2)c(NC(=O)c2cc(Br)ccc2Cl)c1 | 16.1
CC(NC(=O)c1cc2n(n1)CCCN(C)C2)c1cn2ccsc2n1 (configuration not stated) | 24.9
Nc1nccc(-c2cccc3ccnn23)n1 | -1.89
Cc1ncsc1CNC(=O)CCN1CCN(c2ccccn2)CC1 | -8.25
Cc1cc(C)n(CC(C)NC(=O)c2cc(CN3CCC(O)CC3)on2)n1 (configuration not stated) | -9.49
CN(C)C(=O)N1C[C@@H]2COC[C@]2(c2nnc(C3CC3)o2)C1 | -10.1
CC(C)c1nn(C)c(Cl)c1CNCC(=O)N1CCN(C)CC1 | -4.93
CC(C)C(=O)N1CCCC(c2cncc(Oc3cccnc3)n2)C1 (configuration not stated) | -2.17
O=C([C@H]1C[C@H]2OCC[C@H]2N(CCc2ccccc2)C1)N1CCCO1 | -3.87
CCC(C(=O)NCc1csc(N2CCOCC2)n1)n1cccn1 (configuration not stated) | -4.73
COCCN1C[C@H](OCc2csc(C)n2)[C@H]2COC[C@H]21 | -9.78
COc1ccccc1OCc1cc(C(=O)N2CCN(C(C)=O)CC2)n[nH]1 | -5.97
Cc1cc(CN2CCN(CC(O)c3ccc4c(c3)OCO4)CC2)no1 (configuration not stated) | -10.8
CC(=O)N1CCC(C(=O)NCc2cc[nH]n2)(c2ccccc2)CC1 | -5.74
O=C1NCC(C(=O)Nc2ncc(Cc3ccc(F)cc3F)s2)N1 (configuration not stated) | -3.7
COc1c(C2CCCN2C(=O)c2ccco2)c(C)nn1C (configuration not stated) | 8.77
CC(C)(CN1CCOCC1)CN1CCC(Cc2cccc(CO)c2)C1 (configuration not stated) | 17.8
CCOC(=O)[C@@H]1[C@H]2CN(C(=O)OC)CCN2C[C@H]1c1ccccc1 | -5.21

Structure (SMILES) | cytotoxicity at 70.5 h [%]
CC(Nc1cnn(C)c(=O)c1Cl)c1ccc(F)cc1 (configuration not stated) | -13.1
Cc1cc(CS(=O)(=O)C(C)c2ccc(F)cc2)on1 (configuration not stated) | -5.55
COC(=O)c1ncccc1N1CCN(C(=O)CN2CCOCC2)CC1 | 29.5
CC(C)(C)c1ncc(CNc2ccccc2Cn2cncn2)s1 | -8.54
CC(C)c1noc(CN(C)C(=O)C2COc3ccccc3C2)n1 (configuration not stated) | -7.56
COc1ccc(OC)c(C(C)NC(=O)Nc2nnc(C)s2)c1 (configuration not stated) | -5.29
COCC(=O)N1CCN2C(=O)OC[C@H]2C1 | 3.16
CC(C)c1nc(C(=O)N2CCCC(n3cncn3)C2)c[nH]1 (configuration not stated) | -2.47
N#CCCN(C(=O)CCc1cccnc1)c1ccc2c(c1)OCCO2 | -11.1
COc1cccc(CNC(C)c2ccc(-n3ccnc3)cc2)c1O (configuration not stated) | -5.24
Cc1ccc(CN2CCC(Cc3nnc(CO)n3C)CC2)cc1C | 3.69
Cc1cc2n(n1)CC(CNC1CCN(Cc3ccccc3C)CC1)CN2 (configuration not stated) | 5.18
Cc1cc(C)cc(C(=O)Nc2cn[nH]c2)c1 | -8.68
Cc1nc(C)n(CC2CCCCN2CC(=O)Nc2c(C)n[nH]c2C)n1 (configuration not stated) | -1.79
CC(C)Cc1cc(NC(=O)c2cccnc2)n(C)n1 | -9.43
Cc1ncsc1C(=O)N1CCC(c2ncncc2-c2ccnc(N)c2)C1 (configuration not stated) | -7
O=C(Cn1cc(Cl)cn1)NCCN1CCC(O)(c2ccc(F)cc2)CC1 | 5.27
COCc1ccccc1NC(=O)NCc1ccc(OCC2CC2)nc1 | -7.17
O=c1cc(N2CCNCC2)cnn1CCc1ccc(F)cc1 | -4.81
CCn1ccnc1CN1CCCN(C(=O)Cc2ccc(F)cc2)CC1 | 17.5
